Assay results reported in patent US20080287445A1, “Prokineticin 2 receptor antagonists” (priority 2005, published 2008).
“And” between values parts separate entries of the source, which are not always exact repeats. Equal values may be shown once.

Molecular target: T1, GPR73 (prokineticin 1 receptor) (Homo sapiens, UniProt Q8TCW9)
T1 construct: expressed in transfected cells; host or cells: HEK 293
Assay: PK1 functional assay: Ca2+ mobilization screening for PK1 antagonists on the FLIPR
Format: cell-based
Conditions: HEK 293 GPR73 cells, multiple values = multiple testing; for Ca^2+ Mobilization % Inh @ 10 μM: 10 μM compound; for inhibition at 10 µM: HEK293, 10 μM compound, read-out: Ca^2+ Mobilization % Inh @ 10 μM; for IC50: PK1 ligand preparation at its EC50, read-out: Ca^2+ Mobilization IC50
Outline: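 HEK293 cells expressing human GPR73 were loaded with Calcium Plus dye, then on FLIPR given compound for 4 min 15 s before PK1 ligand at its predetermined EC50. Baseline-subtracted fluorescence over 1 min 45 s gave percent inhibition versus maximal signal; IC50 fitted.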

T1 sequence (Q8TCW9 whole entry, species assumed): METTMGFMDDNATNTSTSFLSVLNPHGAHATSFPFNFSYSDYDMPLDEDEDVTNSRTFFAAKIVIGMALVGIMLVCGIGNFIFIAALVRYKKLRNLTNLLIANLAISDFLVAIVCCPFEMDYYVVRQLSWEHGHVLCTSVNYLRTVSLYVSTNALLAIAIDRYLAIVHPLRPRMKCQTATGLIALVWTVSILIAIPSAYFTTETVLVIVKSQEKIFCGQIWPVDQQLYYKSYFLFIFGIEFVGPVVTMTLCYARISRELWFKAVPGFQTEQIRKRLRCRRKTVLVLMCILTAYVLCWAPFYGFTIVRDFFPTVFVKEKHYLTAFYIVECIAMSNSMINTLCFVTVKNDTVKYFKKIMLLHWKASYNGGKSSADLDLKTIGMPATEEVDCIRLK

Row | Ca^2+ Mobilization % Inh @ 10 μM | inhibition at 10 µM [%] | IC50 | SMILES
1 | 82% | 80 | 0.146 µM and 1.06 µM | Cc1cc(C)c(CNc2nc(=O)n(Cc3ccc4c(c3)nnn4C)c(=O)n2Cc2ccc(OC(F)F)cc2)cn1 [Cpd 192]
2 | 39% | – | > 10 µM | COc1ccc(Cn2c(=O)nc(NCc3cnc(C)cc3C)n(Cc3ccc(OC(F)F)cc3)c2=O)cc1 [Cpd 193]
3 | – | 49 | 6.22 µM | Cc1cc(C)c(CNc2nc(=O)n(Cc3ccc(C(N)=O)cc3)c(=O)n2Cc2ccc(OC(F)F)cc2)cn1 [Cpd 194]
4 | – | 84 | 0.451 µM | Cc1cc(C)c(CNc2nc(=O)n(Cc3ccc4snnc4c3)c(=O)n2Cc2ccc(OC(F)F)cc2)cn1 [Cpd 196]
5 | – | 54 | 2.84 µM | COCCCCCn1c(=O)nc(NCc2cnc(C)cc2C)n(Cc2ccc(OC)cc2)c1=O [Cpd 197]
6 | – | 64 | 1.04 µM | COCCCCCn1c(=O)nc(NCc2cnc(C)cc2C)n(Cc2ccc(OC(F)F)cc2)c1=O [Cpd 198]
7 | 95% | 92 | 0.169 µM and 0.691 µM | COc1ccc(Cn2c(CCc3cccnc3N)cc(=O)n(Cc3ccc(OC)cc3)c2=O)cc1 [Cpd 199, 6-[2-(2-Amino-pyridin-3-yl)-ethyl]-1,3-bis-(4-methoxy-benzyl)-1H-pyrimidine-2,4-dione]
8 | – | 87 | 0.304 µM | COc1ccc(Cn2c(=O)nc(NCc3cccnc3N)n(Cc3ccc(OC)cc3OC)c2=O)cc1 [Cpd 200]
9 | – | 95 | 0.327 µM | COc1ccc(Cn2c(NCc3cnccc3C)nc(=O)n(Cc3ccc(OC)cc3)c2=O)cc1 [Cpd 201]
10 | – | 70 | 0.83 µM | COc1ccc(Cn2c(OCc3c(C)cc(C)nc3N)cc(=O)n(Cc3ccc(OC)cc3)c2=O)cc1 [Cpd 202]
11 | – | 103 | 0.06 µM | COc1ccc(Cn2c(=O)nc(NCc3cccnc3N)n(Cc3ccc(OC)c(F)c3)c2=O)cc1 [Cpd 203]
12 | – | 102 | 0.068 µM | COc1ccc(Cn2c(=O)nc(NCc3cnc(C)cc3C)n(Cc3ccc(OC)c(F)c3)c2=O)cc1 [Cpd 204]
13 | – | 102 | 0.106 µM | COc1ccc(Cn2c(=O)nc(NCc3cccnc3N)n(Cc3ccc(OC)cc3F)c2=O)cc1 [Cpd 205]
14 | – | 102 | 0.046 µM | COc1ccc(Cn2c(=O)nc(NCc3cnc(C)cc3C)n(Cc3ccc(OC)cc3F)c2=O)cc1 [Cpd 206]
15 | 93% | 92 | 0.461 µM and 0.471 µM | COc1ccc(Cn2c(NCc3cnc(C)cc3C)nc(=O)n(Cc3ccc4c(c3)OCO4)c2=O)cc1 [Cpd 207]
16 | – | 73 | 1.27 µM | Cc1cc(C)c(CNc2nc(=O)n(Cc3ccc4c(c3)OCO4)c(=O)n2Cc2ccc(OC(F)F)cc2)cn1 [Cpd 208]
17 | – | 51 | 7.73 µM | COc1ccc(Cn2c(NCc3cnc(C)cc3C)nc(=O)n(Cc3ccc4c(c3)OCCO4)c2=O)cc1 [Cpd 209]
18 | – | 39 | > 10 µM | Cc1cc(C)c(CNc2nc(=O)n(Cc3ccc4c(c3)OCCO4)c(=O)n2Cc2ccc(OC(F)F)cc2)cn1 [Cpd 210]
19 | – | 52 | 4.58 µM | COc1ccc(Cn2c(SCc3cccnc3)cc(=O)n(Cc3ccc(OC)cc3)c2=O)cc1 [Cpd 211, 1,3-Bis-(4-methoxy-benzyl)-6-(pyridin-3-ylmethylsulfanyl)-1H-pyrimidine-2,4-dione]
20 | 99% | 103 | 0.021 µM and 0.05 µM | COc1ccc(Cn2c(=O)nc(NCc3c(C)cc(C)nc3N)n(Cc3ccc4c(c3)CC(C)O4)c2=O)cc1 (centres unmarked) [Cpd 212]
21 | – | 45 | > 10 µM | COc1ccc(Cn2c(NCc3c(C)cc(C)nc3N3CCCCC3)nc(=O)n(Cc3ccc(OC)cc3)c2=O)cc1 [Cpd 213]
22 | – | 53 | 7.16 µM | COc1ccc(Cn2c(CCc3cnccc3N)cc(=O)n(Cc3ccc(OC)cc3)c2=O)cc1 [Cpd 214]
23 | 104% and 68% | – | 0.5 µM and 2.78 µM | COc1ccc(Cn2c(NCCc3ccncc3)nc(=O)n(Cc3ccc(OC)cc3)c2=O)cc1 [Cpd 215]
24 | – | 80 | 1.06 µM | COc1ccc(Cn2c(NCc3cnc(C)cc3C)nc(=O)n(Cc3ccc4c(c3)nnn4C)c2=O)cc1 [Cpd 216]
25 | – | 81 | 1.01 µM | COc1ccc(Cn2c(NCc3cnc(C)cc3C)nc(=O)n(Cc3ccc4snnc4c3)c2=O)cc1 [Cpd 217]

Row | Ca^2+ Mobilization % Inh @ 10 μM | inhibition at 10 µM [%] | IC50 | SMILES
26 | – | 94 | 0.104 µM | COc1ccc(Cn2c(NCc3cnc(C)cc3C)nc(=O)n(Cc3ccc(OC)c(F)c3)c2=O)cc1 [Cpd 218]
27 | 97% | 94 | 0.136 µM and 0.158 µM | Cc1cc(C)c(CNc2nc(=O)n(Cc3ccc4c(c3)OCO4)c(=O)n2Cc2ccc(OC(F)F)cc2)c(N)n1 [Cpd 219]
28 | – | 98 | 0.043 µM | COc1ccc(Cn2c(NCc3c(C)cc(C)nc3N)nc(=O)n(Cc3ccc4c(c3)OCO4)c2=O)cc1 [Cpd 220]
29 | 96% | 98 | 0.045 µM and 0.072 µM | Cc1cc(C)c(CNc2nc(=O)n(Cc3ccc4c(c3)nnn4C)c(=O)n2Cc2ccc(OC(F)F)cc2)c(N)n1 [Cpd 221]
30 | – | 98 | 0.06 µM | COc1ccc(Cn2c(NCc3c(C)cc(C)nc3N)nc(=O)n(Cc3ccc4c(c3)nnn4C)c2=O)cc1 [Cpd 222, 6-[(2-Amino-4,6-dimethyl-pyridin-3-ylmethyl)-amino]-1-(4-methoxy-benzyl)-3-(1-methyl-1H-benzotriazol-5-ylmethyl)-1H-[1,3,5]triazine-2,4-dione]
31 | – | 53 | 5.68 µM | COc1ccc(Cn2c(CCc3cccc(N)n3)cc(=O)n(Cc3ccc(OC)cc3)c2=O)cc1 [Cpd 223, 6-[2-(6-Amino-pyridin-2-yl)-ethyl]-1,3-bis-(4-methoxy-benzyl)-1H-pyrimidine-2,4-dione]
32 | – | 97 | 0.007 µM and 0.011 µM | COCCCCCn1c(NCc2c(C)cc(C)nc2N)nc(=O)n(Cc2ccc(OC)cc2)c1=O [Cpd 224, 6-[(2-Amino-4,6-dimethyl-pyridin-3-ylmethyl)-amino]-3-(4-methoxy-benzyl)-1-(5-methoxy-pentyl)-1H-[1,3,5]triazine-2,4-dione]
33 | – | 68 | 3.78 µM | COc1ccc(Cn2c(OC(C)c3ccnc(N)c3)cc(=O)n(Cc3ccc(OC)cc3)c2=O)cc1 (centres unmarked) [Cpd 225]
34 | – | 85 | 0.922 µM | Cc1cc(C)[n+]([O-])c(N)c1CNc1nc(=O)n(Cc2ccc3c(c2)CCO3)c(=O)n1Cc1ccc2c(c1)CCO2 [Cpd 226, 6-[(2-Amino-4,6-dimethyl-1-oxy-pyridin-3-ylmethyl)-amino]-1,3-bis-(2,3-dihydro-benzofuran-5-ylmethyl)-1H-[1,3,5]triazine-2,4-dione]
35 | – | 44 | > 10 µM | Cc1cc(C)c(CNc2nc(=O)n(Cc3ccc4[nH]ccc4c3)c(=O)n2Cc2ccc(OC(F)F)cc2)cn1 [Cpd 227]
36 | – | 63 | 3.4 µM | Nc1ncccc1CNc1nc(=O)n(Cc2ccc3[nH]ccc3c2)c(=O)n1Cc1ccc(OC(F)F)cc1 [Cpd 228]
37 | – | 41 | > 10 µM | COc1ccc(Cn2c(NCc3cnc(C)cc3C)nc(=O)n(Cc3ccc4[nH]ccc4c3)c2=O)cc1 [Cpd 229]
38 | – | 66 | 2.75 µM | COc1ccc(Cn2c(NCc3cccnc3N)nc(=O)n(Cc3ccc4[nH]ccc4c3)c2=O)cc1 [Cpd 230]
39 | – | 89 | 0.245 µM | COc1ccc(Cn2c(NCc3cccnc3N)nc(=O)n(Cc3ccc(Cl)cc3)c2=O)cc1 [Cpd 231]
40 | – | 33 | > 10 µM | COc1ccc(Cn2c(OCc3ccnc(N)n3)cc(=O)n(Cc3ccc(OC)cc3)c2=O)cc1 [Cpd 232]
41 | 97% | 96 | 0.069 µM and 0.13 µM | Cc1cc(C)[n+]([O-])c(N)c1CNc1nc(=O)n(Cc2ccc3c(c2)CCO3)c(=O)n1Cc1ccc(OC(F)F)cc1 [Cpd 233, 6-[(2-Amino-4,6-dimethyl-1-oxy-pyridin-3-ylmethyl)-amino]-1-(4-difluoromethoxy-benzyl)-3-(2,3-dihydro-benzofuran-5-ylmethyl)-1H-[1,3,5]triazine-2,4-dione]
42 | – | 66 | 2.59 µM | COc1ccc(Cn2c(NC(C)c3ccccn3)nc(=O)n(Cc3ccc(OC)cc3)c2=O)cc1 (centres unmarked) [Cpd 234]
43 | – | 98 | 0.085 µM | COc1ccc(Cn2c(NCc3ccc(C(F)(F)F)cn3)nc(=O)n(Cc3ccc(OC)cc3)c2=O)cc1 [Cpd 235]
44 | – | 64 | 1.27 µM | COc1ccc(Cn2c(NCc3ncccc3C(F)(F)F)nc(=O)n(Cc3ccc(OC)cc3)c2=O)cc1 [Cpd 236]
45 | – | 69 | 1.68 µM | COc1ccc(Cn2c(NCc3cc(C(F)(F)F)ccn3)nc(=O)n(Cc3ccc(OC)cc3)c2=O)cc1 [Cpd 237]
46 | – | 95 | 0.251 µM | Nc1ncccc1CNc1nc(=O)n(Cc2ccc3snnc3c2)c(=O)n1Cc1ccc2c(c1)CCO2 [Cpd 242]
47 | – | 75 | 0.914 µM | Cc1cc(C)c(CNc2nc(=O)n(Cc3ccc4snnc4c3)c(=O)n2Cc2ccc3c(c2)CCO3)cn1 [Cpd 243]
48 | – | 94 | 0.121 µM | Cn1nnc2cc(Cn3c(=O)nc(NCc4cccnc4N)n(Cc4ccc5c(c4)CCO5)c3=O)ccc21 [Cpd 244]
49 | – | 45 | > 10 µM | Cc1cc(C)c(CNc2nc(=O)n(Cc3ccc4c(c3)nnn4C)c(=O)n2Cc2ccc3c(c2)CCO3)cn1 [Cpd 245]
50 | – | 48 | 8.32 µM | COc1ccc(Cn2c(NCc3c(N)nc4c(c3-c3ccccc3)CCC4)nc(=O)n(Cc3ccc(OC)cc3)c2=O)cc1 [Cpd 246]
